# Columns and labels:
# Type in all cases: physicochemical
# [1] = Dynamic vapor sorption/desorption (DVS) with post-DVS XRPD
# Description: Moisture sorption/desorption data were collected on a DVS Intrinsic. 7-20 mg of a sample was placed into a tared sample chamber and automatically weighed. The anhydrates were analyzed with the following setting parameters:
# DVS experiments (FIGS. 17, 19, 21, 34, 35, 48 and 50) and XRPD post-DVS experiments (FIGS. 18, 20, 22, 36, 49 and 51) were conducted in order to study the deliquescence behaviour of the crystalline salts upon expose to humidity.
# [2] = Water activity study (competition of forms, XRPD); settings: room temperature
# Description: Water activity study was performed using Compound 3 Form B (anhydrate) as the input material in EtOH/Water with different water content at RT. About 5 mg of Compound 3, Form B was used to prepare saturated solutions and the solutions were filtered by syringe at RT. 5 mg of Compound 3, Form D were added in the 1 mL of filtrate, and the suspension was slurried at RT for 3 and 7 days. The solids collected after filtration were analyzed by XRPD.
# Protocol: excess amount of Compound 4 Form B was used to prepare saturated solutions. 6-8 mg each of Compound 4 Form B and Form D were added in the solutions. The suspension was slurried at room temperature for the corresponding times. Residual solids were collected by filtration with syringe filter, and characterized by XRPD.
# [3] = Solid stability testing (HPLC purity and XRPD); settings: for Solid stability: 60° C. (capped/close) and 40° C./75% RH (open) for 7 days; for Purity, Initial T0 / Purity - 7 days, 60° C. / Purity - 7 days, 40° C./75% RH: HPLC; for Purity, Initial T0 / XRPD, Initial T0: before storage; for Purity - 7 days, 60° C. / XRPD - 7 days, 60° C.: capped/closed vial; for Purity - 7 days, 40° C./75% RH / XRPD - 7 days, 40° C./75% RH: open
# Description: HPLC analysis were performed with an Agilent HPLC 1260 series instrument. HPLC method for stability testing is as follows:
# Solid stability testing of Compound 3, Form D was evaluated at the conditions of 60° C. (capped) and 40° C./75% RH (open) for 7 days. Polymorphic form and purity were analyzed by XRPD and HPLC, respectively. […] (capped) and 40° C./75% RH (open) for 7 days.
# Solid stability testing of Compound 4 Form B and Form D were evaluated at the conditions of 60° C. (vial close) and 40° C./75% RH (vial open) for 7 days. Polymorphic form and purity were checked by XRPD and HPLC, respectively.
# [4] = Comparative study (interconversion and water activity) between crystalline forms; settings: Compound 3: Forms B, C, D, E, non-aqueous and aqueous systems; Compound 4: Forms B to G
# Description: (capped) and 40° C. with 75% relative humidity (open).
# Form D is stable at high water activity (0.16≤aW≤0.90). Solid stability study indicated Form D was physically and chemically stable at 60° C. (close) and 40° C. at 75% RH for 7 days.
# [5] = Slurry study evaluated by XRPD; settings: slurry started from Form B; Form C occurred at 30 min; at 60 min
# [6] = Thermal treatment (heat-cool cycle by DSC, XRPD of resulting solids)
# Description: Compound 3, Form E was treated with heat-cool cycle by DSC. The resulted solids were characterized by XRPD. Compound 3, Form E, was converted to Compound 3, Form D after desolvation.
# Compound 4 Form B was treated with heat-cool cycle by DSC. The resulted solids were checked by XRPD. […] The water was excluded at elevated temperature, then entered in the crystal lattice again at room temperature.
# Compound 4 Form C and trace Form B was treated with heat-cool cycle by DSC. The resulted solids were checked by XRPD. The sample was converted to low crystalline (LC) Form B after heating to 175° C.
# Compound 4 Form D was treated with heat-cool cycle by DSC. The resulted solids were checked by XRPD. The sample kept unchanged after heating to 140° C., but was converted to a new low crystalline form after heating to 210° C. which was assigned to Form F.
hygroscopicity [1],wt % gain (DVS) ([1]; first value of '1.5 wt % and 1.7 wt % gain from 80 to 90% RH'),Reversibility (DVS) ([1]; sorption/desorption),water activity (aw) at which the form is stable / the most stable form [2],Solid stability [3],"Purity, Initial T0 [3]","Purity - 7 days, 60° C. [3]","Purity - 7 days, 40° C./75% RH [3]","XRPD, Initial T0 [3]","XRPD - 7 days, 60° C. [3]","XRPD - 7 days, 40° C./75% RH [3]",relative stability among the crystalline forms [4],Post-DVS XRPD ([1]; XRPD after DVS versus before),wt % gain (DVS) ([1]; at 80% RH (25° C.)),"water uptake (DVS) ([1]; at 80% RH, 25° C.)","XRPD Resulting Form ([6]; Heated to 140° C. at 10° C./min, and cooled to 25° C. at 5° C./min)","XRPD Resulting Form ([6]; Heated to 210° C. at 10° C./min, and cooled to 25° C. at 5° C./min)",SMILES,form conversion during slurry in THF [5]
slightly hygroscopic,1.5 wt %,Minor hysteresis,lower than 0.6,chemically and physically stable,99.19%,99.24%,99.30%,Form D,Form D,Form D,most stable form,,,,,,Cc1n[nH]c2nc(-c3ccc(NS(=O)(=O)c4cc(F)ccc4F)c(F)c3)nc(NCCN(C)C)c12.Cl [Compound 3 Form D],
,,,,,,,,,,,,,,,,,Cc1n[nH]c2nc(-c3ccc(NS(=O)(=O)c4cc(F)ccc4F)c(F)c3)nc(NCCN(C)C)c12 [Compound 4 Form C],converted to di-mesylate Form D completely
slightly hygroscopic,,,,chemically and physically stable,99.29%,99.17%,99.29%,Form D,Form D,Form D,most stable form,No change,0.99 wt %,0.99%,Form D,Form F,Cc1n[nH]c2nc(-c3ccc(NS(=O)(=O)c4cc(F)ccc4F)c(F)c3)nc(NCCN(C)C)c12 [Compound 4 Form D],

# Reference: US20250320215A1, “SALTS OF N-[4-(4-[[2-(DIMETHYLAMINO)ETHYL]AMINO]-3-METHYL-1H-PYRAZOLO[3,4-D]PYRIMIDIN-6-YL)-2-FLUOROPHENYL]-2,5-DIFLUOROBENZENESULFONAMIDE AND CRYSTALLINE FORMS THEREOF” (THRYV THERAPEUTICS INC, priority 2022, published 2025)
